Reference: US20220411414A1, “INHIBITORS FOR THE B-CATENIN/B-CELL LYMPHOMA 9 (BCL9) PROTEIN-PROTEIN INTERACTION” (H. LEE MOFFITT CANCER CENTER AND RESEARCH INSTITUTE, INC., priority 2018, published 2022)

Test system: FOPFlash (three mutant Tcf4 binding sites) luciferase reporter
Experiment: FOPFlash luciferase reporter assay
Type: cell-based
Details: FIG. 1
Experimental: Cell transfection and luciferase assay. FuGENE6 (E269A, Promega) 96 well plate format was used for the transfection of HEK293 and SW480 cells according to the manufacturer's instruction. HEK293 cells were co-transfected with 45 ng of TOPFlash or FOPFlash reporter gene, 135 ng pcDNA3.1-β-catenin, and 20 ng of pCMV-RL normalization reporter gene. SW480 cells were co-transfected with 60 ng of the TOPFlash or FOPFlash reporter gene and 40 ng of pCMV-RL normalization reporter. Cells were cultured in DMEM and 10% FBS at 37° C. for 24 h, and different concentrations of inhibitors or DMSO was added. After 24 h, the luciferase reporter activity was measured using the Dual-Glo system (E2940, Promega). Normalized luciferase activity in response to the treatment with 4 and 5 was compared with that obtained from the cells treated with DMSO. Experiments were performed in triplicate.

Cl.Cl.O=C(Nc1ccc(O[C@@H]2CCNC2)c(-c2cccc(-c3nn[nH]n3)c2)c1)c1ccc(O[C@H]2CCNC2)c(-c2ccc(F)c(F)c2)c1 [Compound 4, 3′,4′-difluoro-6-(((S)-pyrrolidin-3-yl)oxy)-N-(6-(((R)-pyrrolidin-3-yl)oxy)-3′-(2H-tetrazol-5-yl)-[1,1′-biphenyl]-3-yl)-[1,1′-biphenyl]-3-carboxamide dihydrochloride]
FOPFlash luciferase activity: did not inhibit
